Tested on: männliche Wistar-Ratten
Assay: Induction of stereotypies in rats, automatic registration (method of Horowski)
Format: in vivo
Conditions: intraperitoneal, 60 minutes, n = 12
Source text: Die dopaminagonistische Wirkung wurde mit Hilfe der von Horowski beschriebenen Methode der automatischen Registrierung von Stereotypien an Ratten bestimmt (Arzneim. Forsch. 12, 2281-2286, 1978): Unmittelbar nach intraperitonealer Prüfsubstanz- bzw. Vehikelverabreichung werden männliche Wistar-Ratten (90-120 g) einzeln in Zwangskäfige aus Acrylglas gesetzt. Uber ein vor dem Kopf der Tiere angebrachtes elektrodynamisches Aufnahmesystem wird die Zahl der Kontakte an einem stählernen Becher mit einem zentralen Metallstab als Folge der stereotypen Kau-, Leck- und Nagebewegungen während 60 Minuten registriert. Die Mittelwerte ± S.E.M. der Anzahl der Kontakte während 60 Minuten für die verschiedenen Behandlungsgruppen, die mit jeweils 12 Tieren besetzt sind, werden berechnet und die Signifikanz der Unterschiede zwischen den Mittelwerten der verschiedenen Prüfsubstanzdosen im Vergleich zur Vehikel-behandelten Kontrollgruppe mit Hilfe der einfachen Varianzanalyse in Verbindung mit dem Dunnett-Test ermittelt.

[1] = Prüfsubstanzdosis 0.025 (dose unit not given)
[2] = Prüfsubstanzdosis 0.1 (dose unit not given)
[3] = Prüfsubstanzdosis 0.39 (dose unit not given)
[4] = Prüfsubstanzdosis 1.56 (dose unit not given)

| SMILES | Stereotypien (counts pro 60 Minuten) Mittelwert ± S.F.M.) [1] | Stereotypien (counts pro 60 Minuten) Mittelwert ± S.F.M.) [2] | Stereotypien (counts pro 60 Minuten) Mittelwert ± S.F.M.) [3] | Stereotypien (counts pro 60 Minuten) Mittelwert ± S.F.M.) [4] | Stereotypien (counts pro 60 Minuten) Mittelwert ± S.F.M.) (Prüfsubstanzdosis 6.25 (dose unit not given)) |
| --- | --- | --- | --- | --- | --- |
| CCCN1CC(C)=C[C@@H]2c3cccc4[nH]c(C)c(c34)C[C@H]21 [CH3 / CH2CH2CH3] | 4726 ± 1148xx counts pro 60 Minuten | 7601 ± 1182xx counts pro 60 Minuten | 9200 ± 672xx counts pro 60 Minuten | 10150 ± 598xx counts pro 60 Minuten |  |
| CCCN1CC(C)=C[C@@H]2c3cccc4[nH]c(Cl)c(c34)C[C@H]21 [Cl / CH2CH2CH3] | 2091 ± 394 counts pro 60 Minuten | 6470 ± 1018xx counts pro 60 Minuten | 7364 ± 927xx counts pro 60 Minuten | 8837 ± 699xx counts pro 60 Minuten | 10397 ± 1126xx counts pro 60 Minuten |

Reference: patent publication EP0429153A1, “Novel agroclavine and elymoclavine derivatives, processes for their preparation and their use in medicinal preparations” (SCHERING AKTIENGESELLSCHAFT, priority 1989, dated 1991)
